Earlier results, collected in paper PMC7395068, “The evolution of strategies to minimise the risk of human drug-induced liver injury (DILI) in drug discovery and development” (Archives of Toxicology, 2020).
Where two headings read alike, the source gives them in different places.

Tests used:
[1] = test system: isolated mouse liver mitochondria; details: cited from earlier work
HepG2 cells [2] = details: cited from earlier work
[3] = cited from earlier work
human hepatocytes = details: cited from earlier work
HepG2 cells [4] = details: In vitro Assay; ref Persson 2013; cited from earlier work
[5] = test system: THLE or HepG2 cells, isolated mitochondria, BSEP; details: cited from earlier work
[6] = cited from earlier work; remark: listed apart in the source
[7] = test system: primary human hepatocytes, NIH3T3 fibroblasts, BSEP, CYP3A4; details: cited from earlier work
[8] = In vitro Assay, ref Porceddu 2012
[9] = In vitro Assay, ref O'Brien 2006
[10] = In vitro Assay, ref Schadt 2015

Compound	Structural based (HCI) (HepG2 cells [2]; [9])	In vivo DILI ([3]; ref O'Brien 2006)	In vivo DILI ([3]; ref Xu 2008)	Structural based (HCI) (human hepatocytes; In vitro Assay, ref Xu 2008)	Cluser analysis (HepG2 cells [4])	Structural based (HCI) (HepG2 cells [4])	In vivo DILI ([3]; ref Persson 2013)	DILI +VE (5-8), DILI -VE (-4) ([6]; ref Chen 2016)	DILI severity category ([6]; ref Chen 2016)	other results
CCCCN1CCCCC1C(=O)Nc1c(C)cccc1C (stereo not drawn) [bupivacaine]	+VE (lowest HCI endpoint IC50 (or in the absence of dose–response < 100 µM) < 30 × total human plasma exposure levels (Cmax.tot))	-VE	-VE	-VE						in vitro data EC2<=1x Cmax [1, 8]: -VE; in vitro data EC20<=2uM [1, 8]: -VE; In vivo DILI ([3]; ref Porceddu 2012): +VE
C[N+](C)(C)CCOP(=O)(O)OP(=O)([O-])OC[C@H]1O[C@@H](n2ccc(N)nc2=O)[C@H](O)[C@@H]1O [citicoline]	+VE (lowest HCI endpoint IC50 (or in the absence of dose–response < 100 µM) < 30 × total human plasma exposure levels (Cmax.tot))	-VE			-VE	-VE	-VE			
CCOC(=O)C(C)(C)Oc1ccc(Cl)cc1 [clofibrate]	+VE	+VE			-VE	-VE	+VE	+VE	vLess-DILI-Concern	Partition Hybrid HRM Score ([5]; In vitro Assay, ref Aleo 2019): +VE; Ro2 Hybrid HRM Score ([5]; In vitro Assay, ref Aleo 2019): +VE; In vivo DILI ([3]; […]): -VE; In vivo DILI ([3]; ref Aleo 2019): +VE
COc1cccc2c1C(=O)c1c(O)c3c(c(O)c1C2=O)C[C@@](O)(C(=O)CO)C[C@@H]3O[C@H]1C[C@H](N)[C@H](O)[C@H](C)O1 [doxorubicin]	+VE	+VE						+VE	vLess-DILI-Concern	in vitro data EC2<=1x Cmax [1, 8]: +VE; in vitro data EC20<=2uM [1, 8]: +VE; Cellular toxicity (3T3 cells) [7, 10]: +VE; GSH adduct HML [7, 10]: -VE; Hepatocyte cellular toxicity [7, 10]: -VE; MitoTox 3T3 [7, 10]: -VE; TDI CYP3A4 [7, 10]: -VE; hBSEP inhibition [7, 10]: -VE; In vivo DILI ([3]; […]): +VE; In vivo DILI ([3]; ref Porceddu 2012): +VE; In vivo DILI ([3]; ref Schadt 2015): -VE
O=C1Nc2ccc(Cl)cc2[C@@](C#CC2CC2)(C(F)(F)F)O1 [efavirenz]	+VE (lowest HCI endpoint IC50 (or in the absence of dose–response < 100 µM) < 30 × total human plasma exposure levels (Cmax.tot))	+VE			+VE	+VE	+VE	+VE	vMost-DILI-Concern	
O=[N+]([O-])O[C@H]1CO[C@H]2[C@@H]1OC[C@H]2O[N+](=O)[O-] [isosorbide dinitrate]	+VE (lowest HCI endpoint IC50 (or in the absence of dose–response < 100 µM) < 30 × total human plasma exposure levels (Cmax.tot))	-VE			-VE	-VE	-VE	-VE	vNo-DILI-Concern	
CC12CC3CC(C)(C1)CC(N)(C3)C2 [memantine]	-VE	-VE	-VE	-VE				+VE	vLess-DILI-Concern	
O=C(CCNNC(=O)c1ccncc1)NCc1ccccc1 [nialamide]	+VE (lowest HCI endpoint IC50 (or in the absence of dose–response < 100 µM) < 30 × total human plasma exposure levels (Cmax.tot))	-VE			-VE	-VE	-VE	+VE	vMost-DILI-Concern	
COC(=O)Nc1nc2ccc(C(=O)c3cccs3)cc2[nH]1 [nocodazole]	+VE (lowest HCI endpoint IC50 (or in the absence of dose–response < 100 µM) < 30 × total human plasma exposure levels (Cmax.tot))	-VE	-VE	-VE						
CC[C@H](C)C(=O)O[C@H]1C[C@H](O)C=C2C=C[C@H](C)[C@H](CC[C@@H](O)C[C@@H](O)CC(=O)O)[C@H]21 [pravastatin]	-VE	+VE						+VE	vLess-DILI-Concern	Partition Hybrid HRM Score ([5]; In vitro Assay, ref Aleo 2019): +VE; Ro2 Hybrid HRM Score ([5]; In vitro Assay, ref Aleo 2019): -VE; in vitro data EC2<=1x Cmax [1, 8]: -VE; in vitro data EC20<=2uM [1, 8]: -VE; In vivo DILI ([3]; […]): -VE; In vivo DILI ([3]; ref Aleo 2019): +VE; In vivo DILI ([3]; ref Porceddu 2012): +VE
CCc1nc(N)nc(N)c1-c1ccc(Cl)cc1 [pyrimethamine]	+VE	+VE	+VE	+VE				+VE	vLess-DILI-Concern	Cellular toxicity (3T3 cells) [7]: -VE; Combined Assay [7]: -VE; GSH adduct HML [7]: -VE; Hepatocyte cellular toxicity [7]: -VE; MitoTox 3T3 [7]: -VE; TDI CYP3A4 [7]: -VE; hBSEP inhibition [7]: -VE; In vivo DILI ([3]; ref Schadt 2015): -VE
Cc1ncc(C[n+]2csc(CCO)c2C)c(N)n1 [thiamine]	+VE (lowest HCI endpoint IC50 (or in the absence of dose–response < 100 µM) < 30 × total human plasma exposure levels (Cmax.tot))	-VE			-VE	-VE	-VE	-VE	vNo-DILI-Concern	
CC1(C)O[C@@H]2[C@@H](CO[C@@]3(COS(N)(=O)=O)OC(C)(C)O[C@@H]23)O1 [topiramate]	+VE (lowest HCI endpoint IC50 (or in the absence of dose–response < 100 µM) < 30 × total human plasma exposure levels (Cmax.tot))	-VE			-VE	-VE	-VE	+VE	vLess-DILI-Concern	
COc1cc(C(=O)NS(=O)(=O)c2ccccc2C)ccc1Cc1cn(C)c2ccc(NC(=O)OC3CCCC3)cc12 [zafirlukast]	+VE	+VE	+VE	-VE				+VE	vMost-DILI-Concern	Partition Hybrid HRM Score ([5]; In vitro Assay, ref Aleo 2019): +VE; Ro2 Hybrid HRM Score ([5]; In vitro Assay, ref Aleo 2019): +VE; In vivo DILI ([3]; […]): +VE; In vivo DILI ([3]; ref Aleo 2019): +VE
Nc1ccn([C@H]2CC[C@@H](CO)O2)c(=O)n1 [zalcitabine]	-VE	-VE	-VE	-VE						Partition Hybrid HRM Score ([5]; In vitro Assay, ref Aleo 2019): -VE; Ro2 Hybrid HRM Score ([5]; In vitro Assay, ref Aleo 2019): -VE; In vivo DILI ([3]; ref Aleo 2019): +VE
Cc1cn([C@H]2C[C@H](N=[N+]=[N-])[C@@H](CO)O2)c(=O)[nH]c1=O [zidovudine]										Partition Hybrid HRM Score [5]: -VE; Ro2 Hybrid HRM Score [5]: -VE; in vitro data EC2<=1x Cmax [1, 8]: +VE; in vitro data EC20<=2uM [1]: -VE; DILI severity category ([6]; in vivo): vMost-DILI-Concern; Structural based (HCI) (HepG2 cells [2]): +VE; Structural based (HCI) (human hepatocytes): -VE
cyanocobalamin	-VE	-VE	-VE	-VE						Partition Hybrid HRM Score ([5]; In vitro Assay, ref Aleo 2019): -VE; Ro2 Hybrid HRM Score ([5]; In vitro Assay, ref Aleo 2019): -VE; DILI +VE (5-8), DILI -VE (-4) ([6]; in vivo): -VE; DILI severity category ([6]; in vivo): vNo-DILI-Concern; In vivo DILI ([3]; ref Aleo 2019): -VE
